This note sets out measurements from patent US12091425B2 (AMGEN INC., priority 2016, dated 2024).

In the assay the target is T1, Mcl-1/Bim interaction, recombinant human Mcl-1 (171-327) (Homo sapiens, UniProt Q07820).
T1 construct: made in house
Description: Cell free Mcl-1: Bim Affinity Assay (Mcl-1 HTRF). The format is binding. The method in brief:
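Displacement of biotinylated Bim 51-76 peptide is followed by TR-FRET. Incubation runs overnight. Duplicate points are fitted with a four-parameter sigmoid to yield IC50.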

The mark [1] stands for this setting: TR-FRET, 0.1 nM Mcl-1 (171-327), 0.05 nM biotin-Bim (51-76).
Setting [2] is: cell free Mcl-1:Bim TR-FRET, recombinant human Mcl-1 (171-327).

T1 sequence (Q07820 171-327): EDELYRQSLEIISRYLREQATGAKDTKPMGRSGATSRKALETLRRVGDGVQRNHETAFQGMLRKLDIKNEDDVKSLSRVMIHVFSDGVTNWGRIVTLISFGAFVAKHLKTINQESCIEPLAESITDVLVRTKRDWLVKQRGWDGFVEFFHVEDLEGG

In the case of `O=C1NS(=O)(=O)[C@H]2C[C@@H](/C=C/[C@H](O)[C@@H]3CC[C@H]3CN3C[C@@]4(CCCc5cc(Cl)ccc54)COc4ccc1cc43)C2` [Example 100, (1S,3′R,6′R,7′S,8′E,10′S,12′R)-6-chloro-7′-hydroxy-3,4-dihydro-2H,15′H-spiro[naphthalene-1,22′-[20]oxa[13]thia[1,14]diazapentacyclo[14.7.2.1^10,12.0^3,6.0^19,24]hexacosa[8,16,18,24]tetraen]-15′-one 13′,13′-dioxide], the IC50 under setting [1] stood at 2.45 nM. On to `O=C1NS(=O)(=O)[C@H]2C[C@H](CC[C@H](O)[C@@H]3CC[C@H]3CN3C[C@@]4(CCCc5cc(Cl)ccc54)COc4ccc1cc43)C2` [Example 103, (1S,3′R,6′R,7′S,10′R,12′R)-6-chloro-7′-hydroxy-3,4-dihydro-2H,15′H-spiro[naphthalene-1,22′-[20]oxa[13]thia[1,14]diazapentacyclo[14.7.2.1^10,120^3,6.0^19,24]hexacosa[16,18,24]trien]-15′-one 13′,13′-dioxide], for which, under setting [1], the IC50 came out at 1.43 nM. Same read-out and setting: next, `C[C@@H]1[C@@H](C)C[C@H](CCN2CCOCC2)/C=C/[C@@H]2CC[C@H]2CN2C[C@@]3(CCCc4cc(Cl)ccc43)COc3ccc(cc32)C(=O)NS1(=O)=O` [Example 115, (1S,3′R,6′S,7′E,9′R,11′S,12′R)-6-chloro-11′,12′-dimethyl-9′-(2-(4-morpholinyl)ethyl)-3,4-dihydro-2H,15′H-spiro[naphthalene-1,22′-[20]oxa[13]thia[1,14]diazatetracyclo[14.7.2.0^3,6.0^19,24]pentacosa[7,16,18,24]tetraen]-15′-one 13′,13′-dioxide]: 2.71 nM. Still for that read-out and setting: next, `COC(=O)C1CCN(C(=O)[C@H]2CC/C=C\[C@H](O)[C@@H]3CC[C@H]3CN3C[C@@]4(CCCc5cc(Cl)ccc54)COc4ccc(cc43)C(=O)NS2(=O)=O)CC1` [Example 143]: 2 nM. Regarding `O=C1NS(=O)(=O)CC[C@H](CO)/C=C/[C@H](O)[C@@H]2CC[C@H]2CN2C[C@@]3(CCCc4cc(Cl)ccc43)COc3ccc1cc32` [Example 201, (1S,3′R,6′R,7′S,8′E,10′S)-6-chloro-7′-hydroxy-10′-(hydroxymethyl)-3,4-dihydro-2H,15′H-spiro[naphthalene-1,22′-[20]oxa[13]thia[1,14]diazatetracyclo[14.7.2.0^3,6.0^19,24]pentacosa [8,16,18,24]tetraen]-15′-one 13′,13′-dioxide], the IC50 under setting [1] stood at 2.69 nM. Regarding `CO[C@@H]1/C=C/CCS(=O)(=O)NC(=O)c2ccc3c(c2)N(C[C@@H]2CC[C@H]21)C[C@@]1(CCCc2cc(Cl)ccc21)CO3` [Example 225, (1S,3′R,6′R,7′R,8′E)-6-chloro-7′-methoxy-3,4-dihydro-2H,14′H-spiro[naphthalene-1,21′-[19]oxa[12]thia[1,13]diazatetracyclo[13.7.2.0^3,6.0^18,23]tetracosa [8,15,17,23]tetraen]-14′-one 12′,12′-dioxide], the IC50 under setting [1] stood at 23.1 nM. The same measure, in the same setting: next, `CO[C@@H]1CCCCS(=O)(=O)NC(=O)c2ccc3c(c2)N(C[C@@H]2CC[C@H]21)C[C@@]1(CCCc2cc(Cl)ccc21)CO3` [Example 226]: 25.6 nM. On to `CO[C@@H]1CCCCCCS(=O)(=O)NC(=O)c2ccc3c(c2)N(C[C@@H]2CC[C@H]21)C[C@@]1(CCCc2cc(Cl)ccc21)CO3` [Example 230, (1S,3′R,6′R,7′R)-6-chloro-7′-methoxy-3,4-dihydro-2H,16′H-spiro[naphthalene-1,23′-[21]oxa[14]thia[1,15]diazatetracyclo[15.7.2.0^3,6.0^20,25]hexacosa[17,19,25]trien]-16′-one 14′,14′-dioxide], for which the IC50 under setting [1] was 32.3 nM. Regarding `O=C1NS(=O)(=O)C/C=C/[C@H](O)[C@@H]2CC[C@H]2CN2C[C@@]3(CCCc4cc(Cl)ccc43)COc3ccc1cc32` [Example 341, (1S,3′R,6′R,7′S,8′E)-6-chloro-7′-hydroxy-3,4-dihydro-2H,13′H-spiro[naphthalene-1,20′-[18]oxa[11]thia[1,12]diazatetracyclo[12.7.2.0^3,6.0^17,22]tricosa[8,14,16,22]tetraen]-13′-one 11′,11′-dioxide], under setting [1], the IC50 came to 7.07 nM. Still for that read-out and setting: then `O=C1NS(=O)(=O)CCC[C@H](O)[C@@H]2CC[C@H]2CN2C[C@@]3(CCCc4cc(Cl)ccc43)COc3ccc1cc32` [Example 342, (1S,3′R,6′R,7′S)-6-chloro-7′-hydroxy-3,4-dihydro-2H,13′H-spiro[naphthalene-1,20′-[18]oxa[11]thia[1,12]diazatetracyclo[12.7.2.0^3,6.0^17,22]tricosa[14,16,22]trien]-13′-one 11′,11′-dioxide], with 5 nM.

Turning to `O=C1CCCS(=O)(=O)NC(=O)c2ccc3c(c2)N(C[C@@H]2CC[C@H]2CN1)C[C@@]1(CCCc2cc(Cl)ccc21)CO3` [Example 370, (1S,3′R,6′R)-6-chloro-3,4-dihydro-2H,9′H,15′H-spiro[naphthalene-1,22′-[20]oxa[13]thia[1,8,14]triazatetracyclo[14.7.2.0^3,6.0^19,24]pentacosa[16,18,24]triene]-9′,15′-dione 13′,13′-dioxide], the IC50 under setting [1] came to 4.5 nM. Still for that read-out and setting: then `CNC(=O)CO[C@H]1/C=C/CC[C@@H](C)S(=O)(=O)NC(=O)c2ccc3c(c2)N(C[C@@H]2CC[C@H]21)C[C@@]1(CCCc2cc(Cl)ccc21)CO3` [Example 404, 2-(((1S,3′R,6′R,7′S,8′E,12′R)-6-chloro-12′-methyl-13′,13′-dioxido-15′-oxo-3,4-dihydro-2H-spiro[naphthalene-1,22′-[20]oxa[13]thia[1,14]diazatetracyclo[14.7.2.0^3,6.0^19,24]pentacosa [8,16,18,24]tetraen]-7′-yl)oxy)-N-methylacetamide], with 0.442 nM. With `COCCO[C@H]1/C=C/CC[C@@H](C)S(=O)(=O)NC(=O)c2ccc3c(c2)N(C[C@@H]2CC[C@H]21)C[C@@]1(CCCc2cc(Cl)ccc21)CO3` [Example 405, (1S,3′R,6′R,7′S,8′E,12′R)-6-chloro-7′-(2-methoxyethoxy)-12′-methyl-3,4-dihydro-2H,15′H-spiro[naphthalene-1,22′-[20]oxa[13]thia[1,14]diazatetracyclo[14.7.2.0^3,6.0^19,24]pentacosa [8,16,18,24]tetraen]-15′-one 13′,13′-dioxide], the IC50 under setting [1] was found to be 0.543 nM. Same read-out and setting: next, `C[C@@H]1CC/C=C/[C@H](OCCS(C)(=O)=O)[C@@H]2CC[C@H]2CN2C[C@@]3(CCCc4cc(Cl)ccc43)COc3ccc(cc32)C(=O)NS1(=O)=O` [Example 406, (1S,3′R,6′R,7′S,8′E,12′R)-6-chloro-12′-methyl-7′-(2-(methylsulfonyl)ethoxy)-3,4-dihydro-2H,15′H-spiro[naphthalene-1,22′-[20]oxa[13]thia[1,14]diazatetracyclo[14.7.2.0^3,6.0^19,24]pentacosa [8,16,18,24]tetraen]-15′-one 13′,13′-dioxide]: 0.602 nM; `C[C@@H]1CC/C=C/[C@H](OCC(=O)N(C)C)[C@@H]2CC[C@H]2CN2C[C@@]3(CCCc4cc(Cl)ccc43)COc3ccc(cc32)C(=O)NS1(=O)=O` [Example 420, 2-(((1S,3′R,6′R,7′S,8′E,12′R)-6-chloro-12′-methyl-13′,13′-dioxido-15′-oxo-3,4-dihydro-2H-spiro[naphthalene-1,22′-[20]oxa[13]thia[1,14]diazatetracyclo[14.7.2.0^3,6.0^19,24]pentacosa [8,16,18,24]tetraen]-7′-yl)oxy)-N,N-dimethylacetamide]: 0.349 nM; `CC[C@@H]1CC/C=C/[C@H](OCC(=O)NC(C)C)[C@@H]2CC[C@H]2CN2C[C@@]3(CCCc4cc(Cl)ccc43)COc3ccc(cc32)C(=O)NS1(=O)=O` [Example 422, 2-(((1S,3′R,6′R,7′S,8′E,12′R)-6-chloro-12′-ethyl-13′,13′-dioxido-15′-oxo-3,4-dihydro-2H-spiro[naphthalene-1,22′-[20]oxa[13]thia[1,14]diazatetracyclo[14.7.2.0^3,6.0^19,24]pentacosa [8,16,18,24]tetraen]-7′-yl)oxy)-N-(1-methylethyl)acetamide]: 0.865 nM. Still for that read-out and setting: then `COC[C@H]1CC/C=C/[C@H](O)[C@@H]2CC[C@H]2CN2C[C@@]3(CCCc4cc(Cl)ccc43)COc3ccc(cc32)C(=O)NS1(=O)=O` [Example 435, (1S,3′R,6′R,7′S,8′E,12′R)-6-chloro-7′-hydroxy-12′-(methoxymethyl)-3,4-dihydro-2H,15′H-spiro[naphthalene-1,22′-[20]oxa[13]thia[1,14]diazatetracyclo[14.7.2.0^3,6.0^19,24]pentacosa [8,16,18,24]tetraen]-15′-one 13′,13′-dioxide], with 2.56 nM; and `COC[C@@H]1CC/C=C/[C@H](OC)[C@@H]2CC[C@H]2CN2C[C@@]3(CCCc4cc(Cl)ccc43)COc3ccc(cc32)C(=O)NS1(=O)=O` [Example 444, (1S,3′R,6′R,7′S,8′E,12′S)-6-chloro-7′-methoxy-12′-(methoxymethyl)-3,4-dihydro-2H,15′H-spiro[naphthalene-1,22′-[20]oxa[13]thia[1,14]diazatetracyclo[14.7.2.0^3,6.0^19,24]pentacosa [8,16,18,24]tetraen]-15′-one 13′,13′-dioxide], with 0.785 nM.

On to `O=C1NS(=O)(=O)CC/C=C/CC[C@@H]2CC[C@H]2CN2C[C@@]3(CCCc4cc(Cl)ccc43)COc3ccc1cc32` [Example 496, (1S,3′R,6′R,9′E)-6-chloro-3,4-dihydro-2H,15′H-spiro[naphthalene-1,22′-[20]oxa[13]thia[1,14]diazatetracyclo[14.7.2.0^3,6.0^19,24]pentacosa [10,16,18,24]tetraen]-15′-one 13′,13′-dioxide], for which the IC50 under setting [2] is 6.33 nM. The same measure, in the same setting: next, `O=C1NS(=O)(=O)CC/C=C\CC[C@@H]2CC[C@H]2CN2C[C@@]3(CCCc4cc(Cl)ccc43)COc3ccc1cc32` [Example 499, (1S,3′R,6′R,9′Z)-6-chloro-3,4-dihydro-2H,15′H-spiro[naphthalene-1,22′-[20]oxa[13]thia[1,14]diazatetracyclo[14.7.2.0^3,6.0^19,24]pentacosa [9,16,18,24]tetraen]-15′-one 13′,13′-dioxide]: 24 nM.
